How the values were obtained:
Test in all cases: SelectScreen kinase profiling, SSBK ZLyte SP Technology
Assay type in all cases: biochemical
[1] = biological target: kinase named in conditions (Homo sapiens, UniProt P00519, F317I); details: ABL1 F317I, 10 μM
Procedure: (§1) Kinase selectivity screening was performed by Thermo Fisher Scientific (Paisley, U.K.) in their SelectScreen Biochemical Kinase Profiling Service. Assay information and data are presented in the Supporting Information.
(§2) Kinase selectivity screening was performed by ThermoFisher Scientific (Paisley, U.K.) in their SelectScreenTM
(§3) Biochemical Kinase Profiling service .

[2] = biological target: kinase named in conditions (Homo sapiens, UniProt P06241); details: FYN, 10 μM
Procedure: as §1, §2, §3

[3] = biological target: kinase named in conditions (Homo sapiens, UniProt P06493); details: CDK1/cyclin B, 10 μM
Procedure: as §1, §2, §3

[4] = biological target: kinase named in conditions (Homo sapiens, UniProt P07947); details: YES1, 10 μM
Sequence of kinase named in conditions (Homo sapiens, UniProt P07947) (P07947 whole entry): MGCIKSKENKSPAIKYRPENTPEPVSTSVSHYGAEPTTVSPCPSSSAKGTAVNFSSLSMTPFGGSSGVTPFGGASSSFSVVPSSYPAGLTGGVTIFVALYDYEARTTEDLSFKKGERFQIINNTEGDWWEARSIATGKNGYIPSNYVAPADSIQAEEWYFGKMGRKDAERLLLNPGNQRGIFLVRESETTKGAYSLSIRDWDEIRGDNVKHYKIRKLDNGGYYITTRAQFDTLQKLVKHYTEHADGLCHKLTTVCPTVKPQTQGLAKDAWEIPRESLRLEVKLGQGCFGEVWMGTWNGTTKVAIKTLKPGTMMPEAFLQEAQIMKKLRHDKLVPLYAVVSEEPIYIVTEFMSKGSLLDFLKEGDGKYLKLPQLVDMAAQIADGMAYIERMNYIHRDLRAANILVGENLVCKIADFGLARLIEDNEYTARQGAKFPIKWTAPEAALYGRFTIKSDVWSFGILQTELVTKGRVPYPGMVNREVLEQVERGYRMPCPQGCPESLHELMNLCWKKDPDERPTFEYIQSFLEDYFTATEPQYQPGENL
Procedure: as §1, §2, §3

[5] = biological target: kinase named in conditions (Homo sapiens, UniProt P10721); details: KIT, 10 μM
Procedure: as §1, §2, §3

[6] = biological target: kinase named in conditions (Homo sapiens, UniProt P14616); details: INSRR (IRR), 10 μM
Procedure: as §1, §2, §3

[7] = biological target: kinase named in conditions (Homo sapiens, UniProt P16234, D842V); details: PDGFRA D842V, 10 μM
Procedure: as §1, §2, §3

[8] = biological target: kinase named in conditions (Homo sapiens, UniProt P16234, V561D); details: PDGFRA V561D, 10 μM
Procedure: as §1, §2, §3

[9] = biological target: kinase named in conditions (Homo sapiens, UniProt P23443); details: RPS6KB1 (p70S6K), 10 μM
Procedure: as §1, §2, §3

[10] = biological target: kinase named in conditions (Homo sapiens, UniProt P29323); details: EPHB2, 10 μM
Procedure: as §1, §2, §3

[11] = biological target: kinase named in conditions (Homo sapiens, UniProt P29376); details: LTK (TYK1), 10 μM
Procedure: as §1, §2, §3

[12] = biological target: kinase named in conditions (Homo sapiens, UniProt P35626); details: ADRBK2 (GRK3), 10 μM
Procedure: as §1, §2, §3

[13] = biological target: kinase named in conditions (Homo sapiens, UniProt P48729); details: CSNK1A1 (CK1 alpha 1), 10 μM
Procedure: as §1, §2, §3

[14] = biological target: kinase named in conditions (Homo sapiens, UniProt P51955); details: NEK2, 10 μM
Procedure: as §1, §2, §3

[15] = biological target: kinase named in conditions (Homo sapiens, UniProt P54646)
Sequence of kinase named in conditions (Homo sapiens, UniProt P54646) (P54646 whole entry): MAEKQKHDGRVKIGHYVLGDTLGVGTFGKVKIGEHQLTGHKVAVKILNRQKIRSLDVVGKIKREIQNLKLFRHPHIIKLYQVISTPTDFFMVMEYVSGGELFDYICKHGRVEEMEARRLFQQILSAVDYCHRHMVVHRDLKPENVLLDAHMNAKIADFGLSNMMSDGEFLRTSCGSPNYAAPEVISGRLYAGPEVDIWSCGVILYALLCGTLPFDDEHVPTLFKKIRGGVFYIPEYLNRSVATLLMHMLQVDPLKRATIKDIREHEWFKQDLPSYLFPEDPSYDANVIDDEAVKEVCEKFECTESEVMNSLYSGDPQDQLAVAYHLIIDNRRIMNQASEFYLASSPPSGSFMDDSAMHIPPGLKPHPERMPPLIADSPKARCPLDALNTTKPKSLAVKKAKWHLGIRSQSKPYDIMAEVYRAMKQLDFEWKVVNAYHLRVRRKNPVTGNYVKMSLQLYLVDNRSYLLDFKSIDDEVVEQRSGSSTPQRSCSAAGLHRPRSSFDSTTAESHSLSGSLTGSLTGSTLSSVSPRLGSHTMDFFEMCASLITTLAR
Procedure: as §1, §2, §3

[16] = biological target: kinase named in conditions (Homo sapiens, UniProt P78362); details: SRPK2, 10 μM
Procedure: as §1, §2, §3

[17] = biological target: kinase named in conditions (Homo sapiens, UniProt Q02763); details: TEK (Tie2), 10 μM
Procedure: as §1, §2, §3

[18] = biological target: kinase named in conditions (Homo sapiens, UniProt Q05655); details: PRKCD (PKC delta), 10 μM
Procedure: as §1, §2, §3

[19] = biological target: kinase named in conditions (Homo sapiens, UniProt Q08881); details: ITK, 10 μM
Procedure: as §1, §2, §3

[20] = biological target: kinase named in conditions (Homo sapiens, UniProt Q13164); details: MAPK7 (ERK5), 10 μM
Procedure: as §1, §2, §3

[21] = biological target: kinase named in conditions (Homo sapiens, UniProt Q13470); details: TNK1, 10 μM
Sequence of kinase named in conditions (Homo sapiens, UniProt Q13470) (Q13470 whole entry): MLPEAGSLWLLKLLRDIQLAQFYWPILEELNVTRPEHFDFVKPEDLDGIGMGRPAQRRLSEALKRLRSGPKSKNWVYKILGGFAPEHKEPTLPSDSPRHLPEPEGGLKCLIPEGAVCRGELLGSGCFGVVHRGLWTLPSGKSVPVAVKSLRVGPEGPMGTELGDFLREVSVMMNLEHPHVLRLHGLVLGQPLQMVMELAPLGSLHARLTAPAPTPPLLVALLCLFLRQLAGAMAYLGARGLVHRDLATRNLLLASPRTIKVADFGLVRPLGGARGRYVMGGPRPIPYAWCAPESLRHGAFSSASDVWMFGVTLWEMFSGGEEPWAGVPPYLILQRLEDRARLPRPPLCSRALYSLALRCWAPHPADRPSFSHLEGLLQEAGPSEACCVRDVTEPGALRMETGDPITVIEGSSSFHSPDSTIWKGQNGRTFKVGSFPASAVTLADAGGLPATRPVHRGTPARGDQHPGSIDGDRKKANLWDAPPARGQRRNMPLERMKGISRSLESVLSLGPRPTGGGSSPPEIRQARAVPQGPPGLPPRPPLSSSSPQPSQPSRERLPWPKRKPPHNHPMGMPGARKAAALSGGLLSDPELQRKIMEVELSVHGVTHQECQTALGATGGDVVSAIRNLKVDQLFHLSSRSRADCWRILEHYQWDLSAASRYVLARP
Procedure: as §1, §2, §3

[22] = biological target: kinase named in conditions (Homo sapiens, UniProt Q13627); details: DYRK1A, 10 μM
Procedure: as §1, §2, §3

[23] = biological target: kinase named in conditions (Homo sapiens, UniProt Q14680); details: MELK, 10 μM
Sequence of kinase named in conditions (Homo sapiens, UniProt Q14680) (Q14680 whole entry): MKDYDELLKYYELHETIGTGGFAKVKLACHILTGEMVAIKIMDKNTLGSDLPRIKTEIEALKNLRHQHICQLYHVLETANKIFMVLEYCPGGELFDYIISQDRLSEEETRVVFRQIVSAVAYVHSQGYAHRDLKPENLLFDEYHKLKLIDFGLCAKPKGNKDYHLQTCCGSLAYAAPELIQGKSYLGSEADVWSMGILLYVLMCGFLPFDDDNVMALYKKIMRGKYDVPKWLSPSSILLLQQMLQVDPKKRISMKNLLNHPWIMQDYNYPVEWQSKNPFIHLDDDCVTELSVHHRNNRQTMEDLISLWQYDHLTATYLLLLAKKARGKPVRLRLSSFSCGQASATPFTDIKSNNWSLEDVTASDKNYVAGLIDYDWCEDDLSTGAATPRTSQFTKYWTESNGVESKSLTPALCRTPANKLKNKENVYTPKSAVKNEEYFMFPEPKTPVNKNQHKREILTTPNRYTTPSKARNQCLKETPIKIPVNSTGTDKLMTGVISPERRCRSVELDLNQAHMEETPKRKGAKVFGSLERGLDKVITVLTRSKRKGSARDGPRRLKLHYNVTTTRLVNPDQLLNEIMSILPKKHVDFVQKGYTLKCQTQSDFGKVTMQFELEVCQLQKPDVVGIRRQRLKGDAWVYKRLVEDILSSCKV
Procedure: as §1, §2, §3

[24] = biological target: kinase named in conditions (Homo sapiens, UniProt Q15303); details: ERBB4 (HER4), 10 μM
Procedure: as §1, §2, §3

[25] = biological target: kinase named in conditions (Homo sapiens, UniProt Q15418); details: RPS6KA1 (RSK1), 10 μM
Procedure: as §1, §2, §3

[26] = biological target: kinase named in conditions (Homo sapiens, UniProt Q7KZI7); details: MARK2, 10 μM
Procedure: as §1, §2, §3

[27] = biological target: kinase named in conditions (Homo sapiens, UniProt Q9BXA7); details: STK22D (TSSK1), 10 μM
Procedure: as §1, §2, §3

[28] = biological target: kinase named in conditions (Homo sapiens, UniProt Q9BZL6); details: PRKD2 (PKD2), 10 μM
Sequence of kinase named in conditions (Homo sapiens, UniProt Q9BZL6) (Q9BZL6 whole entry): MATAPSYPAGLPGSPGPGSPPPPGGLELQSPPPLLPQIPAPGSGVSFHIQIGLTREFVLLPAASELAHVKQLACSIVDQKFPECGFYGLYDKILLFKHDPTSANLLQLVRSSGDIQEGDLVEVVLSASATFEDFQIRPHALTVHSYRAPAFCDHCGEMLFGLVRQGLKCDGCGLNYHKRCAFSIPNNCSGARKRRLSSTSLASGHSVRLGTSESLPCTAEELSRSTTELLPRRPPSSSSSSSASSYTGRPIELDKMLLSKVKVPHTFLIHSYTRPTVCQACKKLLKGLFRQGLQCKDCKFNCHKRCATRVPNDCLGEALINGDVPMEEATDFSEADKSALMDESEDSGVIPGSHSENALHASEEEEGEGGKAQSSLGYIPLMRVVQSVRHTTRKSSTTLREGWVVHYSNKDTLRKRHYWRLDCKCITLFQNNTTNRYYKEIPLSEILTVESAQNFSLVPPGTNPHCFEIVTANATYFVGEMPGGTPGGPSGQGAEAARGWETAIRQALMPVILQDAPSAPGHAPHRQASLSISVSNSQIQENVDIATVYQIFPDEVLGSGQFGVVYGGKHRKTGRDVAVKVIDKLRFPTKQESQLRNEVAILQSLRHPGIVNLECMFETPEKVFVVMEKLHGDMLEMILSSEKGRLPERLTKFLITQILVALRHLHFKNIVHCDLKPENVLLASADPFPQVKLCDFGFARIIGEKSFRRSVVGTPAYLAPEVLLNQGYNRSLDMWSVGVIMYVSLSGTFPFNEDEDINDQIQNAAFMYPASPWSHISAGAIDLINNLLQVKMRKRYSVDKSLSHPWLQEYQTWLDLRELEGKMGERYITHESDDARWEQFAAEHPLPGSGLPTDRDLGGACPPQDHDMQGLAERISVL
Procedure: as §1, §2, §3

[29] = biological target: kinase named in conditions (Homo sapiens, UniProt Q9H792); details: PEAK1, 10 μM
Procedure: as §1, §2, §3

[30] = biological target: kinase named in conditions (Homo sapiens, UniProt Q9NQU5); details: PAK6, 10 μM
Sequence of kinase named in conditions (Homo sapiens, UniProt Q9NQU5) (Q9NQU5 whole entry): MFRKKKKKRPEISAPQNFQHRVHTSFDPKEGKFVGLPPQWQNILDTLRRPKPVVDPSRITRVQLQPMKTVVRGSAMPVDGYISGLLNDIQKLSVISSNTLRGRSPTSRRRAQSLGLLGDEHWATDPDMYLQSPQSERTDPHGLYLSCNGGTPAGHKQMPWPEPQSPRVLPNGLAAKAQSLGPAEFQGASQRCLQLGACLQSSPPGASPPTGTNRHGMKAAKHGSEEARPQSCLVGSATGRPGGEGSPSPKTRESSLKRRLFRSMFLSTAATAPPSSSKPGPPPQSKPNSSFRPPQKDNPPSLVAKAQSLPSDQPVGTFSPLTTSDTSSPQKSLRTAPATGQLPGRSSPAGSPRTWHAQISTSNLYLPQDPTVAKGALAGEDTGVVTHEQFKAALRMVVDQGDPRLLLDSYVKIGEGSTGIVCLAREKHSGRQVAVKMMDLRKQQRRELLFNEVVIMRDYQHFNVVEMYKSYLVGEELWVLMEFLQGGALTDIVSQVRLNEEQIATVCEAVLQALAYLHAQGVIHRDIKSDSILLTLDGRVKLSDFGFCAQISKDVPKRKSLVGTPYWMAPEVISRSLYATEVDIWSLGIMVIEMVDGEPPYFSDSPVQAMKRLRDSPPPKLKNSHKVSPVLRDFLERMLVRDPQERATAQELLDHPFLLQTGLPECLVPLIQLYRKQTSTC
Procedure: as §1, §2, §3

[31] = biological target: kinase named in conditions (Homo sapiens, UniProt Q9Y243); details: AKT3 (PKB gamma), 10 μM
Sequence of kinase named in conditions (Homo sapiens, UniProt Q9Y243) (Q9Y243 whole entry): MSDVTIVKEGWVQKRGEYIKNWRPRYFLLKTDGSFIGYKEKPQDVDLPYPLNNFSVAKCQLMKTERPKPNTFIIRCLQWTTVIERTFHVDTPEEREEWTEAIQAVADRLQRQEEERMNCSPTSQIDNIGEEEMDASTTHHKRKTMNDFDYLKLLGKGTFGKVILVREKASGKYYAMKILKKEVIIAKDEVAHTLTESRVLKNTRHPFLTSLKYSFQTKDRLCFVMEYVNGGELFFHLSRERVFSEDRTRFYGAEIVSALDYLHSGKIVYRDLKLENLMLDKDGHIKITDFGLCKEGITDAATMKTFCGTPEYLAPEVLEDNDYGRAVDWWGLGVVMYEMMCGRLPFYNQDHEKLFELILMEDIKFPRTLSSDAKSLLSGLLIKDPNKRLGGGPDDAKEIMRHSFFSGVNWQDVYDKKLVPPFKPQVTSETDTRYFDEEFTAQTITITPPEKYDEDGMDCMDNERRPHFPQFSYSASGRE
Procedure: as §1, §2, §3

[32] = biological target: kinase named in conditions (Homo sapiens, UniProt Q9Y463); details: DYRK1B, 10 μM
Procedure: as §1, §2, §3

[33] = biological target: kinase named in conditions (Homo sapiens, UniProt Q9Y4K4); details: MAP4K5 (KHS1), 10 μM
Procedure: as §1, §2, §3

[34] = biological target: kinase named in conditions (Homo sapiens, UniProt Q9Y6E0); details: STK24 (MST3), 10 μM
Sequence of kinase named in conditions (Homo sapiens, UniProt Q9Y6E0) (Q9Y6E0 whole entry): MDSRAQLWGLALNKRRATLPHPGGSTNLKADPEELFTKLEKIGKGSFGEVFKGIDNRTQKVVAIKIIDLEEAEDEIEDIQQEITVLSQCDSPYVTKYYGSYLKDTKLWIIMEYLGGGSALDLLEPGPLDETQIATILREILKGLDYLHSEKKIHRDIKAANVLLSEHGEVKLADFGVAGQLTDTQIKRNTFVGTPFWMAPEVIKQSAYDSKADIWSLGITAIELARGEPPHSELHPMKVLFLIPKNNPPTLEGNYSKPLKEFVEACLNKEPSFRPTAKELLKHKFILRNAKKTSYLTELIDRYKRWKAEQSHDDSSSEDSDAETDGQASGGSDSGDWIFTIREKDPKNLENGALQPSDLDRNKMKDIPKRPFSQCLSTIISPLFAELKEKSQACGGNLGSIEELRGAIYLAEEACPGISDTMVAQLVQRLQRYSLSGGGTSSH
Procedure: as §1, §2, §3

## FC(F)(F)c1c(Cl)ccc(-n2ccnn2)c1Cl [8l, 1-(2,4-Dichloro-3-(trifluoromethyl)phenyl)-1H-1,2,3-triazole]
[1]
  inhibition at 10 µM: 13%
[2]
  inhibition at 10 µM: 0%
[3]
  inhibition at 10 µM: 4%
[4]
  inhibition at 10 µM: 3%
[5]
  inhibition at 10 µM: -7%
[6]
  inhibition at 10 µM: 11%
[7]
  inhibition at 10 µM: 0%
[8]
  inhibition at 10 µM: -3%
[9]
  inhibition at 10 µM: 9%
[10]
  inhibition at 10 µM: 2%
[11]
  inhibition at 10 µM: 4%
[12]
  inhibition at 10 µM: -1%
[13]
  inhibition at 10 µM: 2%
[14]
  inhibition at 10 µM: -11%
[15]; AMPK (A2/B1/G2), 10 μM
  inhibition at 10 µM: -2%
[15]; AMPK (A2/B1/G3), 10 μM
  inhibition at 10 µM: 2%
[15]; AMPK (A2/B2/G3), 10 μM
  inhibition at 10 µM: 3%
[15]; AMPK A2/B1/G1, 10 μM
  inhibition at 10 µM: 14%
[16]
  inhibition at 10 µM: 7%
[17]
  inhibition at 10 µM: -1%
[18]
  inhibition at 10 µM: -4%
[19]
  inhibition at 10 µM: -4%
[20]
  inhibition at 10 µM: -3%
[21]
  inhibition at 10 µM: -3%
[22]
  inhibition at 10 µM: 0%
[23]
  inhibition at 10 µM: 12%
[24]
  inhibition at 10 µM: 1%
[25]
  inhibition at 10 µM: 8%
[26]
  inhibition at 10 µM: -7%
[27]
  inhibition at 10 µM: -5%
[28]
  inhibition at 10 µM: 0%
[29]
  inhibition at 10 µM: 20%
[30]
  inhibition at 10 µM: 15%
[31]
  inhibition at 10 µM: 3%
[32]
  inhibition at 10 µM: 16%
[33]
  inhibition at 10 µM: -10%
[34]
  inhibition at 10 µM: 5%
